Measured values from publication PMC9089912, “Imaging articular cartilage in osteoarthritis using targeted peptide radiocontrast agents” (PLoS ONE, 2022).
Entries after “also recorded” stand apart in the source; their conditions may differ. Values belong to the molecule of their own block, whether it stands above or below them. Non-standard residues stand in square brackets, D forms with d. Residues, ends and D or L forms follow the SMILES beside them. Tyr(3,5-I2) = N[C@@H](Cc1cc(I)c(O)c(I)c1)C(=O)O; AEEA = NCCOCCOCC(=O)O

What was measured:
[1] = Ex vivo micro-CT contrast enhancement of murine articular cartilage: DIPIC vs PTA vs iopamidol; set-up: species or system mouse; details: 20 mg iodine/ml (PTA: 1% in 70% ethanol); for Thickness of cartilage assessed with the contrast agent: ex vivo mouse tibiae; for Thickness of cartilage assessed with the contrast agent / Difference in X-ray absorption between cartilage and background: micro-CT absorption profile; for X-ray absorption of background / X-ray absorption of cartilage / Difference in X-ray absorption between cartilage and background: overnight incubation of mouse tibiae (n = 3); for X-ray absorption of background / X-ray absorption of cartilage: mean ± SEM
Description: Ex vivo imaging with DIPIC, PTA or iopamidol. Mice were culled through inhalation of CO2 and their knee joints harvested and split under a dissection microscope. Tibiae (n = 3) were finely dissected to remove soft tissue and incubated overnight either in DIT peptide or iopamidol (Santa Cruz Biotechnology, Dallas, Texas, USA) at 20 mg iodine/ml (20 μl) or 1% PTA (Sigma) in 70% ethanol. To determine the contrast achieved in the articular cartilage at equilibrium, proximal tibiae were imaged by micro-CT while incubated in each contrast agent. […] Following imaging, tibiae were washed in saline and imaged in fresh saline until the articular cartilage could no longer be detected.
Generation of colour-coded absorption maps. To calibrate micro-CT scans in Hounsfield units (HU), air and water were scanned and reconstructed. The average grey level intensity within a cylindrical VOI was obtained from image histograms in ImageJ (air = -832.85, water = 152.54). Based on knowledge of the average grey level intensity and the corresponding HU (air = -1000, water = 0), the following linear transformation was derived (equation 2): […]
Using this calibration, the grey level intensity of each pixel was linearly transformed into X-ray absorption (HU) for each micro-CT image dataset using Matlab (R2014b, MathWorks, Natick, Massachusetts, USA). To enhance the difference between X-ray absorption of each tissue, colour-coded maps, also expressed in HU, were generated in Matlab by assigning a look up table (LUT) of 256 colours to each image dataset.

[2] = Solubility of purified DIT peptides at concentrations needed for radiocontrast; details: purified peptide (≥ 95% by HPLC), 10% DMSO/water, at 20 mg iodine/ml as well as 2 mg iodine/ml (lowest concentration for contrast)
Description: An integrated design, placing DIT into the core of WYRGRL (3) was followed by the addition of a further DIT at the N-terminus (4). […] To improve solubility, both arginine residues in 3 and 4 were replaced with lysine to give 5 and 6, respectively.

[3] = target: T1, murine articular cartilage (type II collagen) (Mus musculus, UniProt P28481); experiment: Fluorescence histology of murine cartilage after intra-articular injection of DOTAM-Cy5.5 probes; type: in vivo; details: 24 h after intra-articular injection into mouse knee joints; probes of ref 20
T1 construct: Fixed cryosections of murine tibiae (10 µm) 24 h after intra-articular injection of Ac-WYRGRL-DOTAM-Cy5.5 or Ac-YRLGRW-DOTAM-Cy5.5; from tissue; host or cells: articular cartilage of the mouse knee joint (in vivo injection, histology of tibial cryosections)
Description: Fluorescence immunohistochemistry for localisation of Ac-WYRGRL-DOTAM-Cy5.5. Fixed cryosections of murine tibiae (10 µm) 24 h after intra-articular injection of Ac-WYRGRL-DOTAM-Cy5.5 or Ac-YRLGRW-DOTAM-Cy5.5 [1] were blocked with 10% goat serum, stained with rat anti-heparan sulfate proteoglycan antibody (A7L6, Abcam), washed three times with PBS-Tween 0.05% (v/v), labelled with Alexa Fluor 488 goat anti-rat IgG (H+L, Abcam) and washed three times with PBS-Tween 0.05% (v/v) before imaging. Cryosections were viewed under a Nikon TE2000-U Ultraview confocal microscope (PerkinElmer, Seer Green, UK) using a 488 nm excitation laser with 525 nm emission filter to visualise the Alexa Fluor 488 label (green false colour), and a 640 nm excitation laser with 700 nm emission filter to visualise the Cy5.5 label (red false colour).

T1 sequence (P28481 182-1241 limits assumed): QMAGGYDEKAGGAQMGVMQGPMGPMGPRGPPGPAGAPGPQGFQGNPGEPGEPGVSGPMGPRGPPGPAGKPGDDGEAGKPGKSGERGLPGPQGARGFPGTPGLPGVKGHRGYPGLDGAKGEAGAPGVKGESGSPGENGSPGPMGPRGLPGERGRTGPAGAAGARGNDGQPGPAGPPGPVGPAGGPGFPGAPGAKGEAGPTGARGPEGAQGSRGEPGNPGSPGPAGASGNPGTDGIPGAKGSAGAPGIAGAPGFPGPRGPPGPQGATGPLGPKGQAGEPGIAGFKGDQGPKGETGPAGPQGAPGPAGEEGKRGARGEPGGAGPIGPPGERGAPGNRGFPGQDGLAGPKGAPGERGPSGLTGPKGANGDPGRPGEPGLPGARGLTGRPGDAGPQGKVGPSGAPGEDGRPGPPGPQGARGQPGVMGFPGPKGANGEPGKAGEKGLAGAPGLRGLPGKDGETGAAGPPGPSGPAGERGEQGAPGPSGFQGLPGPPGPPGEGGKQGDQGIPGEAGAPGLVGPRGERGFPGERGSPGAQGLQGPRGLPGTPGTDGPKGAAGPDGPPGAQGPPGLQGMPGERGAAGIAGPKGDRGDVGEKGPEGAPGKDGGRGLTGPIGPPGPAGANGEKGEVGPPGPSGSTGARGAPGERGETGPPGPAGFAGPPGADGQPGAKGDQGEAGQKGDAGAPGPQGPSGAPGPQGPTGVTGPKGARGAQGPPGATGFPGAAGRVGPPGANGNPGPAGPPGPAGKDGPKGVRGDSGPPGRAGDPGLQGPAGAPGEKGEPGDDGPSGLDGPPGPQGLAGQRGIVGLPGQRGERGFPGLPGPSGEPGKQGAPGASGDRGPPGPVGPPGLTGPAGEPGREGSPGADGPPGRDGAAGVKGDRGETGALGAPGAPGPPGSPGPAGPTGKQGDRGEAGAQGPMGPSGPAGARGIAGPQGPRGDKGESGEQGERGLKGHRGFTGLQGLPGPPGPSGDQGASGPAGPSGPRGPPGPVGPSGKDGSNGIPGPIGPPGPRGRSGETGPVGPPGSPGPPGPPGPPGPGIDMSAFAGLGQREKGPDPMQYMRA

Molecule: O=P(O)(O)O.[O]=[W](=[O])=[O].[O]=[W](=[O])=[O].[O]=[W](=[O])=[O].[O]=[W](=[O])=[O].[O]=[W](=[O])=[O].[O]=[W](=[O])=[O].[O]=[W](=[O])=[O].[O]=[W](=[O])=[O].[O]=[W](=[O])=[O].[O]=[W](=[O])=[O].[O]=[W](=[O])=[O].[O]=[W](=[O])=[O] [PTA, phosphotungstic acid]
- Thickness of cartilage assessed with the contrast agent [1]: 110 μm
- X-ray absorption of background [1]: 342 ± 64 HU
- X-ray absorption of cartilage [1]: 3657 ± 253 HU
- Difference in X-ray absorption between cartilage and background [1]: 10.7 fold

- Solubility of pure peptide [2]: poor solubility
Molecule: CC(C)C[C@H](NC(=O)[C@H](CCCNC(=N)N)NC(=O)CNC(=O)[C@H](CCCNC(=N)N)NC(=O)[C@H](Cc1cc(I)c(O)c(I)c1)NC(=O)[C@@H](N)Cc1c[nH]c2ccccc12)C(=O)O [compound 3] (H-W[Tyr(3,5-I2)]RGRL-OH)

- Solubility of pure peptide [2]: poor solubility
Molecule: CC(C)C[C@H](NC(=O)[C@H](CCCNC(=N)N)NC(=O)CNC(=O)[C@H](CCCNC(=N)N)NC(=O)[C@H](Cc1cc(I)c(O)c(I)c1)NC(=O)[C@H](Cc1c[nH]c2ccccc12)NC(=O)[C@@H](N)Cc1cc(I)c(O)c(I)c1)C(=O)O [compound 4] (H-[Tyr(3,5-I2)]W[Tyr(3,5-I2)]RGRL-OH)

- Solubility of pure peptide [2]: insoluble
Molecule: CC(C)C[C@H](NC(=O)[C@H](CCCCN)NC(=O)CNC(=O)[C@H](CCCCN)NC(=O)[C@H](Cc1ccc(O)cc1)NC(=O)[C@H](Cc1c[nH]c2ccccc12)NC(=O)COCCOCCNC(=O)[C@H](Cc1cc(I)c(O)c(I)c1)NC(=O)[C@@H](N)Cc1cc(I)c(O)c(I)c1)C(=O)O [compound 12] (H-[Tyr(3,5-I2)][Tyr(3,5-I2)][AEEA]WYKGKL-OH)

- Solubility of pure peptide [2]: insoluble
Molecule: CC(C)C[C@H](NC(=O)[C@H](CCCCN)NC(=O)CNC(=O)[C@H](CCCCN)NC(=O)[C@H](Cc1cc(I)c(O)c(I)c1)NC(=O)[C@@H](N)Cc1c[nH]c2ccccc12)C(=O)NCCOCCOCC(=O)N[C@@H](Cc1cc(I)c(O)c(I)c1)C(=O)NCC(=O)O [compound 14] (H-W[Tyr(3,5-I2)]KGKL[AEEA][Tyr(3,5-I2)]G-OH)

Molecule: C[C@H](O)C(=O)Nc1c(I)c(C(=O)NC(CO)CO)c(I)c(C(=O)NC(CO)CO)c1I [iopamidol]
- Thickness of cartilage assessed with the contrast agent [1]: 70 μm
- X-ray absorption of background [1]: 875 ± 12 HU
- X-ray absorption of cartilage [1]: 678 ± 29 HU
- Difference in X-ray absorption between cartilage and background [1]: 0.8 fold

Molecule: CC(C)C[C@H](NC(=O)[C@H](CCCCN)NC(=O)CNC(=O)[C@H](CCCCN)NC(=O)[C@H](Cc1cc(I)c(O)c(I)c1)NC(=O)[C@H](Cc1c[nH]c2ccccc12)NC(=O)[C@@H](N)Cc1cc(I)c(O)c(I)c1)C(=O)O [peptide 6] (H-[Tyr(3,5-I2)]W[Tyr(3,5-I2)]KGKL-OH)
- Solubility of pure peptide [2]: insoluble in solution

Molecule: Ac-WYRGRL-DOTAM-Cy5.5 [targeting peptide conjugated to a macrocyclic DOTAM scaffold with a Cy5.5 fluorophore]
- Binding of probe to cartilage (Cy5.5 fluorescence histology) [3]: strong binding of the targeted probe to cartilage; also recorded: showed binding to cartilage

Molecule: Ac-YRLGRW-DOTAM-Cy5.5 [scrambled control peptide-DOTAM-Cy5.5 probe]
- Binding of probe to cartilage (Cy5.5 fluorescence histology) [3]: Only targeted probe (F) showed binding to cartilage
